Data from US20260130901A1, “CGRP RECEPTOR ANTAGONIST FOR THE TREATMENT OF MIGRAINE” (ALLERGAN PHARMACEUTICALS INTERNATIONAL LIMITED, priority 2022, published 2026).

Test system: participants with migraine (qualifying prodrome events)
Assay: Phase 3 crossover study: absence of headache after treatment during the prodrome
Type: in vivo, human
Experimental: A phase 3, multicenter, randomized, double-blind, placebo-controlled, crossover study was carried out to evaluate the efficacy, safety, and tolerability of oral ubrogepant in the acute treatment of migraine when administered during the prodrome. The study evaluated whether treatment during the initial phase of a migraine attack (i.e., the prodrome or premonitory phase) prior to the onset of headache, can attenuate the severity of the headache phase and reduce disability.
Eligible participants were able to treat two qualifying prodrome events, defined as a migraine attack with prodromal symptoms in which the participant was confident a headache would follow within 1-6 hours.
The primary endpoint was absence of moderate or severe intensity headache within 24 hours post-dose. Secondary endpoints were absence of moderate/severe intensity headache within 48 hours, ability to function normally over 24 hours, and absence of headache of any intensity within 24 hours post-dose.
The trial enrolled adults with 2-8 migraine attacks per month who stated that they could identify migraine attacks with prodromal symptoms reliably followed by headache. Using an e-diary, participants reported qualifying events, defined as a migraine attack with prodromal symptoms in which the participant was confident a headache would follow within 1-6 hours.
Eligible participants were randomized (1:1) to treatment sequences A or B in this crossover study. Participants randomized to Treatment Sequence A received placebo to treat their first qualifying prodrome event and ubrogepant 100 mg to treat their second qualifying prodrome event. For those randomized to Treatment Sequence B, they received the reverse: ubrogepant 100 mg to treat their first qualifying prodrome event and placebo to treat their second qualifying prodrome event.
The primary efficacy endpoint was the absence of a headache of moderate/severe intensity within 24 hours after taking double-blind study intervention during the prodrome. The secondary efficacy endpoints were the absence of a headache of moderate or severe intensity within 48 hours, ability to function normally over 24 hours, and absence of a headache of any intensity within 24 hours after taking double blind study interventions during the prodrome.
The overall study design is illustrated in FIG. 1. […] After meeting eligibility criteria, randomized participants were to treat two qualifying prodrome events with study intervention during the double-blind treatment period (between Visit 2 and Visit 4) (up to 60 days), separated by a clinic visit (visit 3) to ensure a minimum 7-day washout period. A post-treatment visit (visit 4) followed four days after the last treatment was taken.
To be eligible for study participation, participants must be 18 to 75 years of age (inclusive) at Visit 1, have at least a 1-year history of migraine with or without aura consistent with diagnosis according to the ICHD-3 (2018), and experience 2 to 8 migraine attacks with moderate to severe headache per month by history in each of the 3 months prior to screening. At the screening visit, participants were asked whether they could identify prodromal symptoms followed by migraine headache within 1 to 6 hours at least 75% of the time. […] After the screening period, to be eligible for randomization, the participant needed to record 3 to 16 qualifying prodrome events with at least 75% of these events followed by a headache, of any intensity, within 1 to 6 hours.
Participants were excluded if they had difficulty distinguishing migraine from tension-type or other headache types, or if they had chronic migraine, a trigeminal autonomic cephalalgia, or a painful cranial neuropathy. Participants who overused medication for migraine or had previous exposure to an injectable anti-CGRP monoclonal antibody within the previous 3 months were also excluded.
Participant flow is illustrated in FIG. 2. […]

[1] = 100 mg in prodrome, within 1 hour, mITT, observed cases
[2] = 100 mg in prodrome, within 2 hours, mITT, observed cases
[3] = 100 mg in prodrome, within 3 hours, mITT, observed cases
[4] = 100 mg in prodrome, within 4 hours, mITT, observed cases
[5] = 100 mg in prodrome, within 6 hours, mITT, observed cases
[6] = 100 mg in prodrome, within 8 hours, mITT, observed cases
[7] = 100 mg in prodrome, within 24 hours, mITT, observed cases
[8] = 100 mg in prodrome, within 24 hours, mITT, observed cases (primary analysis)
[9] = 100 mg in prodrome, within 24 hours, sensitivity analysis: Period 1 data only
[10] = 100 mg in prodrome, within 24 hours, sensitivity analysis: non-responder imputation
[11] = 100 mg in prodrome, within 24 hours, sensitivity analysis: testing carryover effect
[12] = 100 mg in prodrome, within 48 hours, mITT, observed cases

## C[C@@H]1[C@H](c2ccccc2)C[C@H](NC(=O)c2cnc3c(c2)C[C@@]2(C3)C(=O)Nc3ncccc32)C(=O)N1CC(F)(F)F [Ubrogepant, (3′S)—N-((3S,5S,6R)-6-methyl-2-oxo-5-phenyl-1-(2,2,2-trifluoroethyl)piperidin-3-yl)-2′-oxo-1′,2′,5,7-tetrahydrospiro[cyclopenta[b]pyridine-6,3′-pyrrolo[2,3-b]pyridine]-3-carboxamide]
[1]
  Absence of a headache of any intensity, Nonresponder (%): (42.9) %
  Absence of a headache of any intensity, Odds Ratio vs. Placebo: 1.19
  Absence of a headache of any intensity, Responder (%): (57.1) %
  Absence of a headache of moderate/severe intensity, Nonresponder (%): (22.9) %
  Absence of a headache of moderate/severe intensity, Odds Ratio vs. Placebo: 1.30
  Absence of a headache of moderate/severe intensity, Responder (%): (77.1) %
  Absence of a headache of severe intensity, Nonresponder (%): (4.0) %
  Absence of a headache of severe intensity, Odds Ratio vs. Placebo: 1.21
  Absence of a headache of severe intensity, Responder (%): (96.0) %
[2]
  Absence of a headache of any intensity, Nonresponder (%): (55.7) %
  Absence of a headache of any intensity, Odds Ratio vs. Placebo: 1.34
  Absence of a headache of any intensity, Responder (%): (44.3) %
  Absence of a headache of moderate/severe intensity, Nonresponder (%): (35.4) %
  Absence of a headache of moderate/severe intensity, Odds Ratio vs. Placebo: 1.31
  Absence of a headache of moderate/severe intensity, Responder (%): (64.6) %
  Absence of a headache of severe intensity, Nonresponder (%): (7.4) %
  Absence of a headache of severe intensity, Odds Ratio vs. Placebo: 1.33
  Absence of a headache of severe intensity, Responder (%): (92.6) %
[3]
  Absence of a headache of any intensity, Nonresponder (%): (62.5) %
  Absence of a headache of any intensity, Odds Ratio vs. Placebo: 1.60
  Absence of a headache of any intensity, Responder (%): (37.5) %
  Absence of a headache of moderate/severe intensity, Nonresponder (%): (39.9) %
  Absence of a headache of moderate/severe intensity, Odds Ratio vs. Placebo: 1.71
  Absence of a headache of moderate/severe intensity, Responder (%): (60.1) %
  Absence of a headache of severe intensity, Nonresponder (%): (9.4) %
  Absence of a headache of severe intensity, Odds Ratio vs. Placebo: 1.41
  Absence of a headache of severe intensity, Responder (%): (90.6) %
[4]
  Absence of a headache of any intensity, Nonresponder (%): (67.3) %
  Absence of a headache of any intensity, Odds Ratio (95% CI) vs. Placebo: 1.76 (1.35, 2.30)
  Absence of a headache of any intensity, Responder (%): (32.7) %
  Absence of a headache of moderate/severe intensity, Nonresponder (%): (41.5) %
  Absence of a headache of moderate/severe intensity, Odds Ratio vs. Placebo: 1.91
  Absence of a headache of moderate/severe intensity, Responder (%): (58.5) %
  Absence of a headache of severe intensity, Nonresponder (%): (10.5) %
  Absence of a headache of severe intensity, Odds Ratio vs. Placebo: 1.70
  Absence of a headache of severe intensity, Responder (%): (89.5) %
[5]
  Absence of a headache of any intensity, Nonresponder (%): (71.0) %
  Absence of a headache of any intensity, Odds Ratio vs. Placebo: 1.79
  Absence of a headache of any intensity, Responder (%): (29.0) %
  Absence of a headache of moderate/severe intensity, Nonresponder (%): (46.6) %
  Absence of a headache of moderate/severe intensity, Odds Ratio vs. Placebo: 1.86
  Absence of a headache of moderate/severe intensity, Responder (%): (53.4) %
  Absence of a headache of severe intensity, Nonresponder (%): (12.5) %
  Absence of a headache of severe intensity, Odds Ratio vs. Placebo: 1.77
  Absence of a headache of severe intensity, Responder (%): (87.5) %
[6]
  Absence of a headache of any intensity, Nonresponder (%): (72.5) %
  Absence of a headache of any intensity, Odds Ratio vs. Placebo: 1.85
  Absence of a headache of any intensity, Responder (%): (27.5) %
  Absence of a headache of moderate/severe intensity, Nonresponder (%): (48.2) %
  Absence of a headache of moderate/severe intensity, Odds Ratio vs. Placebo: 2.01
  Absence of a headache of moderate/severe intensity, Responder (%): (51.8) %
  Absence of a headache of severe intensity, Nonresponder (%): (13.1) %
  Absence of a headache of severe intensity, Odds Ratio vs. Placebo: 1.89
  Absence of a headache of severe intensity, Responder (%): (86.9) %
[7]
  Absence of a headache of any intensity, Nonresponder (%): (76.3) %
  Absence of a headache of any intensity, Odds Ratio vs. Placebo: 1.93
  Absence of a headache of any intensity, Responder (%): (23.7) %
  Absence of a headache of severe intensity, Nonresponder (%): (14.5) %
  Absence of a headache of severe intensity, Odds Ratio vs. Placebo: 1.83
  Absence of a headache of severe intensity, Responder (%): (85.5) %
[8]
  Absence of a headache of moderate/severe intensity, Nonresponder (%): (54.5) %
  Absence of a headache of moderate/severe intensity, Odds Ratio vs. Placebo: 2.09
  Absence of a headache of moderate/severe intensity, Responder (%): (45.5) %
100 mg in prodrome, within 24 hours, mITT, observed cases (primary analysis), listed as ubrogepant
  Absence of a headache of moderate/severe intensity, Responder (%): 45.5%
100 mg in prodrome, within 24 hours, mITT, observed cases, listed as ubrogepant
  Absence of a headache of any intensity, Responder (%): 23.7%
[9]
  Absence of a headache of moderate/severe intensity, Nonresponder (%): (52.6) %
  Absence of a headache of moderate/severe intensity, Odds Ratio vs. Placebo: 2.11
  Absence of a headache of moderate/severe intensity, Responder (%): (47.4) %
[10]
  Absence of a headache of moderate/severe intensity, Nonresponder (%): (57.6) %
  Absence of a headache of moderate/severe intensity, Odds Ratio vs. Placebo: 2.01
  Absence of a headache of moderate/severe intensity, Responder (%): (42.4) %
[11]
  Absence of a headache of moderate/severe intensity, Nonresponder (%): (54.5) %
  Absence of a headache of moderate/severe intensity, Odds Ratio vs. Placebo: 2.09
  Absence of a headache of moderate/severe intensity, Responder (%): (45.5) %
[12]
  Absence of a headache of any intensity, Nonresponder (%): (81.4) %
  Absence of a headache of any intensity, Odds Ratio vs. Placebo: 1.90
  Absence of a headache of any intensity, Responder (%): (18.6) %
  Absence of a headache of moderate/severe intensity, Nonresponder (%): (59.3) %
  Absence of a headache of moderate/severe intensity, Odds Ratio vs. Placebo: 2.13
  Absence of a headache of moderate/severe intensity, Responder (%): (40.7) %
  Absence of a headache of severe intensity, Nonresponder (%): (17.4) %
  Absence of a headache of severe intensity, Odds Ratio vs. Placebo: 1.71
  Absence of a headache of severe intensity, Responder (%): (82.6) %
100 mg in prodrome, within 48 hours, mITT, observed cases, listed as ubrogepant
  Absence of a headache of moderate/severe intensity, Responder (%): 40.7%
Administered during the prodrome
  Reducing the development of moderate/severe headache within 24 and 48 hours and of headache of any intensity within 24 hours: superior to placebo
